Data on two compounds can be found in patent publication US5922724A, “Benzimidazole compounds and their use as modulators of the GABA a receptor complex” (Neurosearch A/S, priority 1995, dated 1999).

This experiment has as its target benzodiazepine receptor sites (GABAA receptor complex). In words: Displacement of ^3 H-flunitrazepam (^3 H-FNM) binding to rat cerebral cortex membranes. Details: species or system male Wistar rats (cerebral cortex). The note with it: ^3 H-FNM 1 nM, 40 min at 2° C., pH 7.1, non-specific binding with clonazepam 1 μM, read-out: IC50 (concentration of the test substance which inhibits the specific binding of ^3 H-FNM by 50%). The source says: At present two types of GABA receptors are known, the GABAA and the GABAB receptors. […] Activation of GABA receptors leads to alternations in membrane potential (hyperpolarization). The GABAA receptors are associated with chloride influx through its associated and integrated chloride channel, whereas GABAB receptor activation indirectly alters potassium and calcium channels as well as modifies second messenger production. The GABAA recognition sites can be activated by GABA, muscimol; and isoguvacine for example, but not by GABAB agonists such as for example baclofen. The modulatory GABAA recognition site at the benzodiazepine receptor sites can be selectively radiolabelled with ^3 H-flunitrazepam. The affinity of various potential ligands for the benzodiazepine receptor sites can thus be evaluated by estimating the ability of test compounds to displace ^3 H-flunitrazepam.
Preparations are performed at 0-4° C. unless otherwise indicated. Cerebral cortex from male Wistar rats (150-200 g) is homogenized for 5-10 sec in 20 ml Tris-HCl (30 mM, pH 7.4) using an Ultra-Turrax homogenizer. […]
The membrane preparation is thawed and centrifuged at 2° C. for 10 min at 27,000× g. […] Non-specific binding is determined using clonazepam (1 μM, final concentration). […] The amount of radioactivity on the filters is determined by conventional liquid scintillation counting. […]

Molecules are shown by their SMILES.

In the case of `c1cc(-n2ccnc2)cc(-n2cnc3cc(-c4ccoc4)ccc32)c1` [1-(3-(1-Imidazolyl)phenyl)-5-(3-furanyl)benzimidazole], the IC50 is 0.4 nM.
For `Cc1nccn1-c1cccc(-n2cnc3cc(-c4ccoc4)ccc32)c1` [1-(3-(2-Methylimidazol-1-yl)phenyl)-5-(3-furanyl)benzimidazole] the value was 0.4 nM.
